Consider 8 substances from US10899815B2, “Compositions and methods of using islet neogenesis peptides and analogs thereof” (SHENZHEN HIGHTIDE BIOPHARMACEUTICAL, LTD., priority 2013, dated 2021).

The subject of data set [1] is STZ induced diabetic mice model. Kind of data set: Efficacy in streptozotocin (STZ) induced diabetic mice model. Type of data set: in vivo, C57BL/6J mice. The conditions noted are these: 5 mg/kg or 25 mg/kg for 20 days. As for the experimental part: After acclimatization in the animal facility for one week, 6-8 weeks old C57BL/6J mice were administered low dose STZ at 40 mg/kg in citrate buffer for 5 consecutive days to establish a TID animal model. Mice with blood glucose greater than 16.7 mmol/L at 5 days post last STZ injection were included in the study. These mice were then treated with INGAP-PP (Peptide 1) or Peptide 7 at the closes of 5 mg/kg (2.5 mg/kg, bid (twice a day)) or 25 mg/kg (12.5 mg/kg, bid) for 20 days before sacrifices. Two additional groups of diabetic mice were administered either saline or a peptide (Peptide 3) composed of a scrambled sequence of amino acids from Peptide 1 as control groups. Blood glucose and insulin levels were measured, and 20 days post the last dosing of test agents, an oral glucose tolerance test (OGTT) was performed in 6 hour fasted animals to determine the effect of Peptide 1 and Peptide 7. Blood samples obtained from the tail cut for glucose determination were detected with an ACCU-CHEK™ glucometer (Roche, ACCU-CHEK® Active), and insulin levels were determined with Rat/Mouse Insulin Elisa kit (Millipore, Billerica, Mass. USA). For the OGTT, after the measurement of the basal glucose concentration (T=−30 min), mice received an oral glucose challenge at 2 g/kg and glucose values were determined by glucometer at 0, 15, 30, 60, 90 and 120 min.

The subject of a further data set is normal C57BL/6J mice. Kind of data set: Induction of small β-cell clusters in normal mice. Type of data set: in vivo. The conditions noted are these: for body weight, blood glucose, plasma insulin, pancreas insulin, or pancreas weight: compared to saline group. Here is the method: After a 1-week acclimation, C57BL/6J female mice were randomly divided into 4 groups. The two control groups received either 10 mL/kg sterile normal saline (n=4) or scrambled peptide (Peptide 3, 25 mg/kg) (n=5) via subcutaneous injection for 10 days. The other two groups received INGAP-PP (Peptide 1) or INGAP-PP analog Peptide 7 at a dose of 25 mg/kg per day respectively (n=7 per group) for the same period. Body weight and 6 hour fasting blood glucose were measured before treatment and after the last dosing of treatment. Plasma and pancreatic insulin were also measured at the end of the study. On day 11, the pancreas was removed from each animal, cleared of fat and lymph nodes, weighed, and fixed in 10% neutral buffered formalin (NBF) for no longer than 24 hours before processing for morphometric analysis.
Immunohistochemistry analysis was used to determine pancreatic islet size distribution.

For a further data set, the system named is pancreatic islets. Kind of data set: Glucose-stimulated insulin secretion (GSIS) of isolated islets. Type of data set: cell-based, Sprague-Dawley (SD) rats. The conditions noted are these: rat islets, 12.0 mM glucose, 10 μg/mL peptide (GLP-1 100 nM), 60 min, FIG. 8. Here is the method:
The pancreases were procured from male adult Sprague-Dawley (SD) rats. After 7 days acclimation, the animals were sacrificed by cervical dislocation and the entire pancreas was removed and digested with collagenase to isolate islets. After digestion, islets were maintained at 37° C. in RPMI 1640 (Carlsbad, Calif., USA) pH 7.4, containing 10% (v/v) fetal calf serum, 1% penicillin/streptomycin, and 10 mM glucose in a humid atmosphere (5% CO2/95% O2), without the addition of any compound (control), or with the addition of 100 nM glucagon like peptide-1 (GLP-1); or 10 μg/mL Peptide 1, Peptide 12, or Peptide 16, as summarized in Table 4 below. Cultured islets were rinsed in Krebs-Ringer bicarbonate buffer (KRB), pH 7.4, previously gassed with a mixture CO2/O2 (5/95%), and pre-incubated in 1.0 ml KRB containing 0.5% (w/v) BSA and 1.5 mM glucose at 37° C. for 45 min. After this period, groups of 5 islets were incubated in 0.6 ml KRB with the addition of 1.5 or 12.0 mM glucose, with or without the addition of peptides for 60 min. At the end of the incubation period, aliquots of the medium were collected for insulin quantitation.

Data set [2] is described as follows: Peptide stability in culture medium. In kind it is physicochemical. The conditions noted are these: F-12K medium, 0.25 mg/mL, 37° C., 0-72 hours, HPLC, FIG. 2. Here is the method:
To determine the stability of peptides in culture medium, a certain amount of selected peptides was accurately weighed and dissolved in distilled water to 5 mg/mL as a stock solution. The stock solution was diluted to 0.25 mg/mL with F-12K medium (Gibco-BRL, Gaithersburg, Md., USA) as working solution. A volume of 100 μL of each working solution was transferred into individual sample vials. The sample vials were incubated in a 37° C. incubator for 0, 24, 48 and 72 hours before being analyzed and quantitated by HPLC.

Data set [3] is described as follows: Peptide stability in mouse plasma. Type of data set: in vitro ADME. The conditions noted are these: 100 μg/mL, 37° C., LC-MS/MS, FIG. 3 and FIG. 5. As for the experimental part:
The stability of peptides was also tested in mouse and human plasma. Briefly, a certain amount of peptides and eucatropine powder (positive control) was accurately weighed. Test compounds were dissolved in 50% methanol-water solution and diluted to 20 mg/mL, and eucatropine was dissolved in dimethylsulfoxide (DMSO) and diluted to 10 mM, as a stock solution. Eucatropine stock solution was diluted to 0.2 mM with DMSO as a working solution. A stop reagent was prepared containing 200 ng/mL midazolam and tolbutamide in acetonitrile. A volume of 300 μL of stop solution was added to each well of a 96-well deep-well plate placed on ice beforehand.
For the stability studies, peptides and eucatropine were spiked into plasma respectively, mixed well, and then 100 μL of each mixture solution was transferred into the pre-cooled stop reagent as 0 time point sample. The remaining mixtures were incubated in a 37° C. water bath with shaking at 100 rpm (n=2). The final incubation concentration was 1 μM for eucatropine and 100 μg/mL for all test compounds.
At desired time points, 100 μl, of incubation mixture was transferred to the stop reagent to precipitate proteins. Samples were vortexed and centrifuged at RCF 5000-g for 10 minutes, and supernatant was transferred to a test plate. The samples were analyzed by LC-MS/MS.
Slope was calculated by plotting the natural logarithm of the percentage or remaining amount of test compounds and time, and T12 was calculated in accordance with the following formula.
For stability in mouse plasma, the incubation time was 0, 5, 15, 30 and 60 min for Peptide 1 and eucatropine, 0, 15, 30, 60, 120, 240 and 480 min for Peptide 12, Peptide 16 and Peptide 29.
In another stability study in mouse plasma, the incubation time was 0, 30, 60 and 120 min for Peptide 2 and eucatropine; 0, 30, 60, 120, 240 and 960 min for Peptide 52 and Peptide 54.

Another data set can be described thus: Pharmacokinetics in rat. Type of data set: in vivo, Sprague-Dawley (SD) rats. The conditions noted are these: rat, in vivo, 25 mg/kg. As for the experimental part:
After 7 days acclimation, male Sprague-Dawley (SD) rats weighing 210-250 g, or male C57BL/6 mice, weighing 19-24 g, in good health were used in the study. Peptide 1, Peptide 12 and Peptide 16 were dissolved in sterile normal saline and then they were injected via subcutaneous (sc) bolus or intravenous (iv) bolus at the dose level of 25 mg/kg. Three animals in each group were used for blood collection at the time point of 5 min, 15 min, 30 min, 1 h, 2 h, 4 h, 6 h, 8 h and 24 h post-dose. Blood samples (approximately 400 μL) were collected and placed into tubes containing EDTA-K2 and centrifuged at 8000 rpm for 6 minutes at 4° C. to separate plasma front the samples. The resulting plasma was stored frozen at −80° C. until being analyzed. Plasma concentrations of peptides were determined using tandem mass spectrometry (LC-MS/MS) analysis. A non-compartmental module of WinNonlin® Professional 5.2 (Pharsight; St. Louis, Mo.), was used to calculate PK parameters. The abbreviation AUC(0-t) represents area under the curve front the time of dosing to the time of the last observation, the AUC(0-∞) represents area under the curve from the time of dosing to infinity, and the Cmax represents maximum concentration detected.

Where [4] appears, read: normal mice, 25 mg/kg sc for 10 days.

Ends that are not written are not given here.

For the substance “H-IGLHDPSHGTLPNGS-OH [Peptide 1, H-IGLHDPSHGTLPNGS-OH, reference compound]”, the “body weight or pancreas weight” value in data set [1] is “did not affect”. Moreover, the “number of islets, islet size ranging from 2.1 to 0.7” value with normal C57BL/6J mice (normal female C57BL/6J mice, 25 mg/kg per day for 10 days, islet size as Log [μm^2], FIG. 7) is recorded as “only observed in islet size of 2.1”. In the data set with normal C57BL/6J mice (setting [4]), the “body weight, blood glucose, plasma insulin, pancreas insulin, or pancreas weight” value is “did not affect”. In addition, the “glucose-stimulated insulin secretion versus islets without peptides” value in the data set on pancreatic islets was “no stimulation”. For the substance H-IGLHAPSHGTLPAGS-OH [Peptide 8], the “stability in culture medium” value in data set [2] was “significantly more stable than INGAP-PP peptide”.

With “Ac-IGLHDPTQGTEPNGE-OH [Peptide 54, Ac-IGLHDPTQGTEPNGE-OH]”, in data set [3], the “stability in mouse plasma” value was “good stability in mouse plasma and were significantly more stable than HIP”.

With “GLP-1: Glucagon like peptide-1, positive control at 100 nM in GSIS (HAEGTFTSDVSSYLEGQAAKEFIAWLVKGR; ends and bridges not checked; UniProt P01275 98-127, looked up) [reference compound]”, the “glucose-stimulated insulin secretion versus islets without peptides” value with pancreatic islets is “released significantly more insulin”.

With “H-SHPNGSGTIGLHDPL-OH [Peptide 3, H-SHPNG SGTIG LHDPL-OH]”, in the data set on normal C57BL/6J mice (setting [4]), the “all parameters measured, versus normal saline” value is “no difference” and the “body weight, blood glucose, plasma insulin, pancreas insulin, or pancreas weight” value is recorded as “did not affect”.

Take “Ac-IGLHDPTQGTEPAGE-OH [Peptide 52, Ac-IGLHDPTQGTEPAGE-OH]”: the “stability in mouse plasma” value in data set [3] was “good stability in mouse plasma and were significantly more stable than HIP”.

As to “Ac-IGLHDPSHGTLPAGS-NH2 [Peptide 29, Ac-IGLHDPSHGTLPAGS-NH2]”, the “stability in mouse plasma” value in data set [3] is “good stability in mouse plasma and were more stable than INGAP-PP”. On to “Ac-IGLHDPSHGTLPAGS-OH [Peptide 12, Ac-IGLHDPSHGTLPAGS-OH]”, for which the “PK properties (AUC and Cmax) compared to INGAP-PP” value in “Pharmacokinetics in rat” is recorded as “marked improved PK properties”. Moreover, the “glucose-stimulated insulin secretion versus islets without peptides” value in the data set with pancreatic islets is reported as “released significantly more insulin”.
